Measured values from PMC7844219, “Antifibrotic effect of novel neutrophil gelatinase-associated lipocalin inhibitors in cardiac and renal disease models” (Scientific Reports, 2021).

Tested on: human plasma protein
Experiment: Binding to human plasma protein
Type: in vitro ADME
Protocol: Several parameters have been evaluated to determine ADME-Tox profile of the compounds. Two specific toxicity assays have been performed to assess hepatoxicity and cardiotoxicity. Hepatotoxicity was evaluated in isolated hepatocytes from swiss mice and determined by the thiazolyl blue tetrazolium bromide colorimetric assay (sigma, St Louis, MO, USA). Cardiotoxicity was evaluated using the commercially available Predictor hERG fluorescence polarization kit (Thermo Fisher Scientific, Illinois, USA). Several absorption, distribution, metabolism, and excretion (ADME) assays have been carried out. The following experiments were undertaken: stability in human microsomes, binding to human plasma protein, and CYP3A4 inhibition assay (Vivid CYP3A4 assay, Thermo Fisher Scientific, Illinois, USA). Physico-chemical properties were also assessed such as aqueous solubility and chemical stability.

CC(=O)c1cccc(S(=O)(=O)NCc2ccccc2-n2cccn2)c1 [GPZ614741]
Plasma protein binding (PPB), in words: low | hPPB% (Table S5, human plasma protein binding): 71.16%
